Laboratory results published in PMC11123773, “Identification of New Substrates and Inhibitors of Human CYP2A7” (Molecules, 2024).
Substitutions are numbered along the chain they refer to.

Columns and labels:
Assay in all cases: Diclofenac biotransformation with enzyme bags, LC-MS analysis of hydroxydiclofenac
Type in all cases: biochemical
[1] = target: T1, CYP2A7-WT (Homo sapiens, UniProt P20853, D169E/H274R/R311C/V479G); design: expressed in transfected cells; host or cells: Schizosaccharomyces pombe strain AA01 (pREP1-CYP2A7-WT in CAD62), permeabilized cells (enzyme bags); conditions: by CYP2A7-WT; diclofenac 100 µM
T1 sequence (P20853 1-494 D169E/H274R/R311C/V479G): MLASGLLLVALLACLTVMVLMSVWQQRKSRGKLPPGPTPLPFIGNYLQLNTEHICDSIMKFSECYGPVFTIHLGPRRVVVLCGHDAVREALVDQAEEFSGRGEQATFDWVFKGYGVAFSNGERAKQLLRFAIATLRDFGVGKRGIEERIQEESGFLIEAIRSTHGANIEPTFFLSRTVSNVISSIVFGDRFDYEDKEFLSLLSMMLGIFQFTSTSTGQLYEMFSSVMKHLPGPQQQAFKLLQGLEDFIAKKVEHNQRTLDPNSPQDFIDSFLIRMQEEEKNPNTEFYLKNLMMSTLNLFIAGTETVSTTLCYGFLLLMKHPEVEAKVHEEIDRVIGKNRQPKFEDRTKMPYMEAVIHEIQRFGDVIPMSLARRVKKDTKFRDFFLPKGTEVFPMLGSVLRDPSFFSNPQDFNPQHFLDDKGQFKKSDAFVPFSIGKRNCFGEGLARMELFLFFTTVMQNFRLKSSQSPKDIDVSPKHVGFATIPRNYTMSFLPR
Method: (§1) This was performed as described previously with slight modifications. Briefly, fission yeast cells were cultured on EMM plates with 5 µM thiamine for 3 days at 30 °C. A single yeast colony was then transferred to a 10 mL liquid culture of EMM without thiamine and cultured at 30 °C and 230 rpm for 36 h. As the recombinant expression of the human enzymes is controlled by the strong endogenous nmt1 promoter, all subsequent cultures were cultured in the absence of thiamine to keep the promoter in an active state. For each activity assay, 5 × 10^7 cells (stationary growth phase) were transferred to 1.5 mL Eppendorf tubes (Axygen; Silicon Valley, USA), pelleted, and incubated in 1 mL of 0.3% Triton-X100 in Tris-KCl buffer (200 mM KCl, 100 mM Tris-HCl pH 7.8) at room temperature for 60 min at 150 rpm for permeabilization. After three washes with 1 mL NH4HCO3 buffer (50 mM, pH 7.8), cells were resuspended in phosphate buffer (pH 7.4) and then the substrate and the NADPH regeneration system were added to a total volume of 50 µL. The samples were incubated at 37 °C and 1000 rpm for 3 h. For LC-MS analysis, the reaction mixture was extracted with an equal amount of ethyl acetate by centrifugation, and the supernatants were stored at −20 °C until use.
(§2) Analytical procedures were performed on an Agilent HPLC/microTOF-Q II instrument equipped with a Kromasil 100-5-C18 (dimensions 4.6 × 250 mm). […]

[2] = target: T2, CYP2A6*1 (Homo sapiens, UniProt P11509); design: expressed in transfected cells; host or cells: Schizosaccharomyces pombe strain RAJ122 (pREP1-CYP2A6*1 in CAD62), permeabilized cells (enzyme bags); conditions: by CYP2A6*1; diclofenac 100 µM
T2 sequence (P11509 1-494): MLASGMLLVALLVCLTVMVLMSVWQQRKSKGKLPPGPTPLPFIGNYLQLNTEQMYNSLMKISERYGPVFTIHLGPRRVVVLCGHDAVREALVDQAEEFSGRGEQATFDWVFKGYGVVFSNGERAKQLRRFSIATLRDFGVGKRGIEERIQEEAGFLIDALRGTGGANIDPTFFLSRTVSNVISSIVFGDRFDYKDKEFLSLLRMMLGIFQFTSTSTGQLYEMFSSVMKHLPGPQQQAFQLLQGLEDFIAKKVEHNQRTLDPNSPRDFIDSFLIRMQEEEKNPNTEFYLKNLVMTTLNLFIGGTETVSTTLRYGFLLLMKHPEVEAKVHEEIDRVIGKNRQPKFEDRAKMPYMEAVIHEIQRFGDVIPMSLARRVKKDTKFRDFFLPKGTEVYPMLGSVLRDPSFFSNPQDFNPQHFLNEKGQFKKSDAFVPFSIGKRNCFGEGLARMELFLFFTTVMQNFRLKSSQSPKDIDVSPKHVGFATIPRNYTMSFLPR
Method: as §1, §2

[3] = target: T3, CYP2A7*1 (Homo sapiens, UniProt P20853); design: expressed in transfected cells; host or cells: Schizosaccharomyces pombe strain RAJ127 (pREP1-CYP2A7*1 in CAD62), permeabilized cells (enzyme bags); conditions: by CYP2A7*1; diclofenac 100 µM
T3 sequence (P20853 1-494): T1 sequence (P20853 1-494 D169E/H274R/R311C/V479G) with E169D, R274H, C311R, G479V
Method: as §1, §2

O=C(O)Cc1ccccc1Nc1c(Cl)cccc1Cl [diclofenac]
Metabolization of diclofenac (hydroxydiclofenac formation) [1]: produced a diclofenac metabolite that had the mass of hydroxydiclofenac | Metabolization of diclofenac (hydroxydiclofenac formation) [2]: produced a diclofenac metabolite that had the mass of hydroxydiclofenac | Metabolization of diclofenac (hydroxydiclofenac formation) [3]: produced a diclofenac metabolite that had the mass of hydroxydiclofenac
